Data on two molecules can be found in publication PMC11148078, “Potent activity of polymyxin B is associated with long-lived super-stoichiometric accumulation mediated by weak-affinity binding to lipid A” (Nature Communications, 2024).

Each structure is given as a SMILES string. “Also recorded” adds a separate entry of the source. Where two headings read alike, the source gives them in different places. Bridge positions count the residues as written; N and C are the ends. Square brackets hold non-standard residues; d marks the D form. Peptide text beside a SMILES is read from it. * marks the point of attachment. X1 = CC[C@H](C)CCCCC(=O)*; Dab = NCC[C@H](N)C(=O)O Some results are limits rather than exact numbers.

The test system of one assay is E. coli WT+rifampicin. The assay can be described thus: Rifampicin potentiation / outer membrane permeability, wild-type E. coli. In kind it is cell-based. The protocol:
(§1) Bacterial strains and plasmids are listed in SI Table S5. LB growth media was prepared according to manufacturer’s instructions and supplemented with 0.2% arabinose and carbenicillin (50 μg/mL) for the strains containing pBAD24-mcr1 plasmid. Cultures were started by inoculating 3 ml LB with 1–2 colonies from fresh overnight plates and grown at 37 °C until in log phase. Modified minimal inhibitory concentration (MIC) assays were performed in 96-well round bottom polystyrene plates (Corning) with a final volume of 100 µl in LB supplemented with tween-80 at 0.0005%. […] Polymyxin B sulfate (TCI Co. Ltd), polymyxin B nonapeptide (PMBN) (Sigma), and brevicidine (Genentech) were diluted directly in the assay plates. Bacteria were diluted in LB with tween-80 0.0005% and added to a final OD600 of 0.0005. Growth was measured via OD600 on a SpectraMax M5 plate reader after overnight static growth at 37 °C with humidity.

In another assay the test system is E. coli mcr-1+rifampicin. The assay can be described thus: Rifampicin potentiation / outer membrane permeability, E. coli mcr-1. In kind it is cell-based. The protocol:
as §1

A further assay relates to wt-OMVs. The assay can be described thus: Single-cycle kinetic SPR binding to immobilized wt-OMVs. Further details: species or system E. coli. The note with it: for SPR binding in presence of excess Mg^2+: 32 mM Mg^2+; for SPR binding profile: serial doubling injections, C1 chip. The protocol: (§2) Polymyxin B was covalently attached to a C1 chip (Series S Sensor Chip C1, Cytiva) using an amine coupling kit (Cytiva). Cartoon in Fig. 1A created with BioRender (biorender.com). Briefly, equal amounts of reagents N-hydroxysuccinimide and 1-ethyl-3-(3-dimethylaminopropyl) carbodiimide hydrochloride were mixed as per manufacturer’s instructions and immediately added to the gold chip surface for 2 min, washed with distilled deionized water, and dried. Sufficient polymyxin B (1 mM in 1 M HEPES buffer, pH 8) was added to cover the chip surface, incubated at room temperature for 1 h, washed as before, and then incubated with 1 M ethanolamine hydrochloride-NaOH, pH 8.5, for 1 min. The chip surface was washed with water, dried as previously described, immediately loaded into a Biacore S200, and primed with running buffer (described below) to equilibrate the system. C1 chips were used for multiple runs and discarded upon removal from the Biacore S200.
(§3) SCK C1-chip SPR experiments were performed in running buffer (Dulbecco’s phosphate-buffered salt solution 1x without calcium or magnesium (Fisher Scientific), pH 7.4, with 0.0005% tween-80 (Sigma) passed through a 0.2 µm filter) unless otherwise indicated. Inclusion of tween-80 prevented loss of polymyxin to the plastics[34] (also see Supplementary Information Methods). For experiments with brevicidine, which was suspended in DMSO, 0.125% DMSO was included in the running buffer. OMVs were diluted from frozen stocks to approximately 20–30 µg/ml protein in the OMV buffer. Capture of OMVs was performed at a low flow rate ([…]) for 300 s over the test channel(s) followed by a 300 s stabilization period. All subsequent steps were at a flow rate of […]. For single cycle kinetics, two-fold dilutions were injected over the channel(s) loaded with OMVs and a reference channel without OMVs for 30 s contact and 480 s dissociation. To regenerate chips, 0.5% SDS (desorb 1, Cytiva) was injected into all channels for 60 s at 30 µl/ml twice, with an extra buffer wash and four carry-over control steps to prevent residual SDS from disrupting the following cycle.
All single-cycle kinetic SPR traces shown were double-referenced (unless indicated) within the Biacore S200 Evaluation Software 1.0, exported as a.txt file, and imported (decimated) into GraphPad Prism (version 9.3.1 for Mac, GraphPad Software, San Diego, CA). For clarity, in some cases individual outlier data points (at buffer transitions) were removed when this would not change the overall data or conclusions.
(Surface plasmon resonance follows binding to a sensor surface in real time, without labels.)

The test system of assay [1] is resistant-OMVs (E. coli PmrA^G53E). The assay can be described thus: Single-cycle kinetic SPR binding to immobilized resistant-OMVs. To be noted: serial doubling injections, C1 chip. How it is done: as §2
as §3, with “To regenerate chips, 0.5% SDS (desorb 1, Cytiva) was injected into all channels for 60 s at 30 µl/ml twice, with an extra buffer wash and four carry-over control steps to prevent residual SDS from disrupting the following cycle.” left out

Assay [2] deals with E. coli PmrA^G53E+rifampicin. The assay can be described thus: Rifampicin potentiation / outer membrane permeability, E. coli PmrA^G53E. In kind it is cell-based. The protocol:
as §1

For the molecule `CC(C)C[C@@H]1NC(=O)[C@@H](Cc2ccccc2)NC(=O)[C@H](CCN)NC(=O)[C@@H](NC(=O)[C@H](CCN)NC(=O)[C@@H](N)[C@@H](C)O)CCNC(=O)[C@H]([C@@H](C)O)NC(=O)[C@H](CCN)NC(=O)[C@H](CCN)NC1=O` [PMBN] (H-T[Dab][Dab][Dab][dF]L[Dab][Dab]T; lactam 3-C), the “outer membrane permeabilization / rifampicin potentiation” value with E. coli WT+rifampicin is recorded as “still permeabilizes the outer membrane to rifampicin; also recorded: can still permeabilize the outer membrane”. Further, the “MIC in presence of rifampicin” value came out at 78 nM in the assay with E. coli WT+rifampicin (rifampicin 1.56 µM, LB + 0.0005% tween-80, overnight 37 °C); 2500 nM in the assay with E. coli mcr-1+rifampicin; 20000 nM in assay [2]. The “SPR binding in presence of excess Mg^2+” value in the assay on wt-OMVs is on record as “eliminated”. In addition, the “SPR binding profile” value in the assay on wt-OMVs was “exhibited only weak, saw-tooth binding; also recorded: exclusively produces rapidly reversible binding”; in assay [1], “exhibited only weak, saw-tooth binding”.

Turning to `CC[C@H](C)CCCCC(=O)N[C@@H](CCN)C(=O)N[C@H](C(=O)N[C@@H](CCN)C(=O)N[C@H]1CCNC(=O)[C@H]([C@@H](C)O)NC(=O)[C@H](CCN)NC(=O)[C@H](CCN)NC(=O)[C@H](CC(C)C)NC(=O)[C@@H](Cc2ccccc2)NC(=O)[C@H](CCN)NC1=O)[C@@H](C)O` [Polymyxin B] (X1-[Dab]T[Dab][Dab][Dab][dF]L[Dab][Dab]T; lactam 4-C (inferred); N-terminus assumed), the entries for the “MIC in presence of rifampicin” value (with E. coli WT+rifampicin; in the assay with E. coli mcr-1+rifampicin; in assay [2]) were <0.02 nM, 1 nM and 1 nM, respectively. Besides, the “outer membrane permeabilization / rifampicin potentiation” value in the assay with E. coli mcr-1+rifampicin is listed as “still potentiated the activity of an antibiotic normally excluded by the outer membrane, rifampicin”; in assay [2], “still potentiated the activity of an antibiotic normally excluded by the outer membrane, rifampicin”. In the assay with wt-OMVs, the “SPR binding in presence of excess Mg^2+” value is given as “reduced to a weak transient saw-tooth profile without stably bound polymyxin B”. Also, in the assay on wt-OMVs (EDTA 4 mM, maximum 625 nM, n=3), the “effect of EDTA on SPR binding” value is recorded as “had no effect on polymyxin binding”. For the same molecule, the “SPR binding profile” value is “dominated by the accumulation of tightly bound polymyxin B and a superimposed saw-tooth profile associated with transient binding” with wt-OMVs; “exhibited only the weak, saw-tooth binding” in assay [1].
